Entries after “also recorded” stand apart in the source; their conditions may differ.
Experiments:
Neuro2a cells [1] = conditions: CPP/pLuc2 CR3, 0.1 μg pDNA, 4 h at 37 °C in 50% FBS (MQ for controls), then transfection of Neuro2a cells, luciferase read-out; Figure 2A
Procedure: The stability of the CPP/pDNA nanoparticles to degradation and dissociation by components found in serum was assessed by reporter gene expression in cells after 4 hours incubation of CPP/pLuc2 complexes with 50% FBS. Complexes were formed as described previously, with 0.1 μg pDNA (CR 3), and incubated at room temperature for 40 minutes. After this, FBS (or MQ for controls) was added to the complexes, and the mixture incubated at 37°C for 4 hours (final FBS concentration 50%). For transfection, 1 × 10^4 Neuro2a cells were seeded to transparent 96‐well plates in supplemented DMEM media 24 hours before experiment. On the day of the experiment, the cells were transfected and luciferase expression analyzed as described in previous section (In vitro transfection).

[2] = Heparin displacement assay (PicoGreen); format: physicochemical; conditions: CPP/pLuc2 CR3, 0.1 μg pDNA per well, MQ water, heparin 30 min 37 °C, 100% = naked pDNA, Figure 2B
Procedure: Accessibility of pDNA in complexes formed between pDNA and CPPs was assessed by Quant‐iT™ PicoGreen® (Thermo Fisher Scientific) assay in mQ water. CPP/pLuc2 nanoparticles at CR3 were prepared as described previously, and transferred to black 96 well plates (0.1 μg of pDNA per well). Heparin solution was added into the wells and incubated at 37°C for 30 minutes. For detection, PicoGreen® was added to the wells, and incubated for 20 minutes. Fluorescence was measured by fluorimeter (λex = 492 nm, λem = 535 nm) (SynergyMx, BioTek).

tumors = conditions: systemic reporter gene plasmid delivery; cited from earlier work
From the text: In a previous paper MMP‐activatable CPPs PepFect144 (PF144), PepFect145 (PF145), and PepFect146 (PF146) were designed, where the cell penetration ability of the CPPs was reversibly masked by attaching a PEG molecule to the C‐terminus of the peptides via an MMP‐2/‐9 cleavable linker. […] Although plasmid DNA has been successfully used in combination with small molecule therapeutics,31, 32 achieving a clinical effect by plasmid delivery ...

Neuro2a cells [3] = experiment: In vitro transfection of CPP/pGL3 complexes, luciferase activity, with and without MMP-2 treatment; format: cell-based, mouse; conditions: CPP/pGL3 complexes CR3 incubated with MMP-2 (3.8 ng/μL) 37 °C 40 min before transfection, 24 h, Figure 1B
Procedure: CPP/pDNA nanoparticles for cell culture assays were prepared by mixing plasmid DNA (0.5 μg per well of a 24‐well plate) with CPPs, at CPP/pDNA charge ratio 3 (CR3) in MQ water with final volume of 105 μL, followed by a 40‐minute incubation at room temperature. pGL3 Control (Promega, Stockholm, Sweden) was used as the luciferase encoding plasmid since it is best suitable for in vitro use.
Twenty‐four hours before the experiment 3 × 10^4 Neuro2a cells were seeded onto 24‐well plates. Peptide/pDNA complexes at CR3 were prepared as described above. The transfection mixture was added to cells containing full media, and it made up 1/10 of the total cell medium volume during the time of transfection. Lipofectamine™ 2000 (Invitrogen, Carlsbad, CA) was used according to the manufacturer's protocol and added to the cells in serum‐containing medium. After 4‐hour incubation with the complexes, an additional 1 mL of fresh medium was added to the cells and incubated for an additional 20 hours. Thereafter, the media was removed, cells were lyzed with 100 μL 0.1% Triton X‐100 in PBS for 15 minutes at 4°C. Luciferase activity was measured using Promega's luciferase assay (Luciferase Assay System, Promega) according to the manufacturer's protocol on GLOMAX™ 96 microplate luminometer (Promega) and normalized to protein content, which was measured with the BioRad Protein Assay (Hercules, CA) according to the manufacturer's protocol.
To study the effect of MMP‐2 cleavage on transfection efficiency, active recombinant MMP‐2 enzyme (0.1 mg/mL, Calbiochem, Germany) was added to the CPP/pDNA complexes in MQ (final MMP‐2 concentration 3.8 ng/μL), and incubated at 37°C for 40 minutes prior transfection.

[4] = test system: BALB/c mice bearing subcutaneous Neuro2a tumors; experiment: Reporter gene delivery in vivo (CPP/pLuc2, luciferase in tissues); set-up: species or system mouse; conditions: for tumor specificity of reporter gene induction (luciferase levels in tissues): one iv dose of CPP/pLuc2 at CR4, plasmid 0.8 mg/kg, PEGylation rate 50%, tissues 24 h after injection
Procedure: (§1) For in vivo studies, the plasmid dose was 0.8 mg/kg per animal; the pDNA was mixed with the CPP at CR 4 in MQ water, keeping the final complex volume at 100 μL. After 40‐minute incubation, 100 μL of 10% glucose was added to the complexes and injected immediately via tail vein. The luciferase encoding plasmid used in reporter gene experiments in vivo was p‐CMV‐Luc2, marked as pLuc2 in the text, which is optimized for in vivo use.
(§2) If not stated otherwise, the PEGylation rate of peptides in the CPP/pDNA complexes was 50% in all in vivo experiments.
(§3) Mouse Neuro2a and HT1080 tumor xenografts were induced by resuspending 1 × 10^6 cells in 100 μL volume of ice‐cold un‐supplemented DMEM and implanting the cell suspension subcutaneously to the right flank of the mouse (Neuro2a: 4‐ to 6‐week‐old BALB/c; HT1080: Hsd:Athymic Nude‐Foxn1nu female, 4‐6 weeks old, Harlan, UK). The 4T1 orthotopic tumors were induced by injecting 5 × 10^4 cells in 50 μL of ice‐cold un‐supplemented RPMI into the fourth mammary fat pad of 4‐ to 8‐week‐old female BALB/c mice.
Twenty‐four hours after the intravenous administration of CPP/pLuc2 complexes, the mice bearing Neuro2a tumors were sacrificed by cervical dislocation and tissues were harvested and snap‐frozen on dry ice. The tissues were homogenized using Precellys®24‐Dual homogenization system (Bertin Technologies, France) and lyzed with 1 × Promega lysis buffer (Promega). Luminescence was analyzed as described in in vitro transfection methods section.

sc HT1080 tumors = experiment: Tumor growth reduction study, HT1080 fibrosarcoma model; format: in vivo, mouse; conditions: nude athymic mice, sc HT1080, CPP/pshVEGF CR4, 0.8 mg/kg every other day, three doses (two iv, third ip), n = 10, compared to pshVEGF alone; Figure 3A
Procedure: as §1, §2, §3
(§4) Before treatment, the mice were assigned into six groups of 10. CPP/pshVEGF treatment for HT1080 tumor‐bearing animals was started at the first appearance of tumor growth (tumor size of approximately 100 mm^3). […] The tumor sizes were measured with calipers three times a week. […]

orthotopic 4T1 tumors = experiment: Tumor growth reduction study, orthotopic 4T1 breast tumor model; format: in vivo, mouse; conditions: BALB/c mice, orthotopic 4T1, treatment from 1 day after implantation, CPP/pshVEGF CR4, 0.8 mg/kg every other day, three doses, n = 10; Figure 3B
Procedure: as §1, §2, §3, §4

[5] = molecular target: active human recombinant MMP-2 enzyme (Homo sapiens, UniProt P08253)
Sequence of active human recombinant MMP-2 enzyme (P08253 110-660): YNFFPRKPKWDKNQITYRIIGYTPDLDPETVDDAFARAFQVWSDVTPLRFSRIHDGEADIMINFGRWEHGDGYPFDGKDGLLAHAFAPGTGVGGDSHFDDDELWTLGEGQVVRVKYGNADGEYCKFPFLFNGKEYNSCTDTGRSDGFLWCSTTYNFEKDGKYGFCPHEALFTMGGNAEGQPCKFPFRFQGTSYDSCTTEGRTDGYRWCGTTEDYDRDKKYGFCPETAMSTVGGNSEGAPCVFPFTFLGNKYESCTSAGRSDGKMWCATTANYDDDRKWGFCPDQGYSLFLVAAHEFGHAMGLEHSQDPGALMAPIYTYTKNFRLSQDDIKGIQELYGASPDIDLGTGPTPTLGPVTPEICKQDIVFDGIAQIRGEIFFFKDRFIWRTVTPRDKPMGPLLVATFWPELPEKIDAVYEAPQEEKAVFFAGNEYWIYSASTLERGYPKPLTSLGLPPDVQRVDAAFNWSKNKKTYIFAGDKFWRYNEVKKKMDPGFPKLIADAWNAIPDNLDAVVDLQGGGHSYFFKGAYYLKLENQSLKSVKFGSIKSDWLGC
Procedure: Cleavage assay of MMP-2 cleavable CPPs that contain iRGD. The peptides were incubated with
The mixture was then analyzed with RP-UPLC (C18 reverse phase column, eluted with 20-
80% acetonitrile in water, 0.1% TFA). […] Enzyme digestion
products were confirmed by MALDI-ToF mass spectrometry.
Peptide cleavability by MMP-2
To assess the cleavability of iRGD-modified CPPs by MMP-2, the peptides were incubated
with recombinant MMP-2 (0.1 mg/ml, Calbiochem, Germany) in MQ water for 40 minutes at
37°C and analyzed with UPLC.

Stearyl‐AGYLLGKLLOOLAAAALOOLL‐X‐PLGLAG‐PEG600‐NH2 [PF144]
sensitivity of CPP/pDNA nanoparticles to serum treatment (transfection efficiency before and after FBS) (Neuro2a cells [1]): highest stability to serum and heparin treatment out of all the PEGylated peptides
resistance of pDNA in complexes to heparin displacement (relative PicoGreen fluorescence) [2]: significantly more resistant to heparin treatment than other PEGylated CPPs tested
tissue/tumor specificity of plasmid DNA delivery in vivo (tumors): efficient tumor specificity; also recorded: successful in mediating tumor‐specific gene delivery

Stearyl‐AGYLLGKLLOOLAAAALOOLL‐X‐PLGLAG‐PEG600‐C*RGDKGPDC*‐NH2 (disulfide) [PF144‐iRGD, iRGD‐functionalized PF144]
transfection efficiency after incubation with MMP-2 enzyme (enzyme-dependent activation) (Neuro2a cells [3]): fully restored to the level of PF14
tumor specificity of reporter gene induction (luciferase levels in tissues) ([4]; Figure 1C): decreased the tumor specificity; also recorded: reduction in tumor specificity

Stearyl‐AGYLLGKLLOOLAAAALOOLL‐X‐PLGLAG‐PEG1000‐NH2 [PF145]
sensitivity of CPP/pDNA nanoparticles to serum treatment (transfection efficiency before and after FBS) (Neuro2a cells [1]): lowest transfection efficiency after serum treatment
tissue/tumor specificity of plasmid DNA delivery in vivo (tumors): successful in mediating tumor‐specific gene delivery

Stearyl‐AGYLLGKLLOOLAAAALOOLL‐X‐PLGLAG‐PEG1000‐C*RGDKGPDC*‐NH2 (disulfide) [PF145‐iRGD, iRGD‐functionalized PF145]
effect on tumor growth, HT1080 model (sc HT1080 tumors): did not translate into efficient tumor treatment
transfection efficiency after incubation with MMP-2 enzyme (enzyme-dependent activation) (Neuro2a cells [3]): fully restored to the level of PF14
reporter gene induction at different PEGylation rates ([4]; PF145-iRGD/pLuc2 CR4, 20 µg, PEGylation rates 40%, 50%, 70% (rest PF14), iv, 24 h, N=3 per group, Figure S2): 50% being the most effective of the three
tumor specificity of reporter gene induction (luciferase levels in tissues) ([4]; Figure 1C): preserved its tumor specificity; also recorded: minimal luciferase induction in healthy tissues
effect on tumor growth, 4T1 model (orthotopic 4T1 tumors): performs worse than PF144

C*RGDKGPDC*‐NH2 (disulfide) [iRGD, tumor‐homing peptide, αvβ3 integrin targeting ligand, reference compound]
luciferase levels in tissues on coadministration of standalone iRGD with CPP/pLuc2 nanoparticles ([4]; iRGD coadministered (molar amount equal to that of PF14) with PF144 or PF145 nanoparticles, iv, CR4, 0.8 mg/kg plasmid, 24 h, Figure 1C): high luciferase levels in spleen; also recorded: high reporter gene expression in the spleen

Stearyl‐AGYLLGKLLOOLAAAALOOLL‐X‐LALGPG‐PEG1000‐C*RGDKGPDC*‐NH2 (disulfide) [PF148‐iRGD]
effect on tumor growth, HT1080 model (sc HT1080 tumors): no effect on tumor size
transfection efficiency after incubation with MMP-2 enzyme (enzyme-dependent activation) (Neuro2a cells [3]): no enzyme‐dependent activation
tumor specificity of reporter gene induction (luciferase levels in tissues) ([4]; Figure 1C): unable to induce luciferase expression in any tissue
cleavability of the MMP-2 sensitive linker by the MMP-2 enzyme [5]: resistant to MMP‐2 degradation
effect on tumor growth, 4T1 model (orthotopic 4T1 tumors): no effect on tumor size

From paper PMC6996304, “Tumor gene therapy by systemic delivery of plasmid DNA with cell‐penetrating peptides” (FASEB bioAdvances, 2018)
